Assay results: patent US5688830A, “Treatment of neuropathic pain” (Syntex (U.S.A.) Inc., priority 1997, dated 1997)

Legend:
[1] = tested on: voltage-gated sodium channels ([3H]BTX binding, rat cortex); experiment: [3H]BTX binding assay, rat cortex membranes
Experimental: The following assays characterize the interaction of the compounds of Formula I with ligand binding sites on voltage-gated sodium channels.
Frozen tissues were obtained from Pel-Freez Biologicals (Rogers, AR). Tissues were homogenized in 10 volumes of a Tris-sucrose buffer (10 mM Tris-HCl, 250 mM sucrose, pH 7.4 at 4° C.) using 10 strokes with a glass-glass, hand-held homogenizer. The homogenates were filtered through nylon mesh and then centrifuged at 1,000×g for 15 minutes. The pellets were resuspended in a Hepes buffer (50 mM Hepes, 130 mM choline chloride, 5 mM glucose, 5.4 mM KCl, pH 7.4 at 4° C.). The resuspended pellets were centrifuged at 1,000×g for 15 minutes, resuspended in a Hepes buffer (50 mM Hepes, 130 mM choline chloride, 5 mM glucose, 5.4 mM KCl, pH 7.4 at 25° C.) and, frozen at -70° C. until used in binding assays.
Nonspecific binding was defined in the presence of 1 mM veratridine. Unless otherwise specified, PbTx (0.1 μM) and LqTx (50 μg/ml) were included in the assays. Membranes were incubated for 60 minutes at 25° C. and then filtered using GF/B glass fiber filters that had been pretreated with 0.3% PEI. Filters were rinsed with 3×1 ml of ice cold 50 mM Tris-HCl (pH 7.4 at 4° C.) and the bound radioactivity was determined by scintillation counting (Packard Top-count).

[2] = tested on: mechanical allodynia in rats; experiment: Mechanical allodynia in vivo assay (spinal nerve ligation); design: species or system rat
Experimental: This assay determines the effectiveness of compounds in relieving one of the symptoms of neuropathic pain produced by spinal nerve ligation, namely mechanical allodynia. The surgical procedure was performed essentially as described by Kim and Chung, Pain, (1992) 50:355-363. Briefly, the rats were anesthetized with an intraperitoneal dose of pentobarbital sodium (65 mg/kg) with additional doses of anesthetic given as needed. Each animal was then placed in a prone position, a 3 cm lateral incision was made, and the left paraspinal muscles separated from the spinous process at the L4 -S2 level. The L6 transverse process was then removed in order to visually identify the L4 -L6 spinal nerves. The L5 and L6 spinal nerves were then individually isolated and tightly ligated with silk thread. The wound was then closed in layers by silk sutures. Seven to 28 days post-surgery, a calibrated series of eight von Frey filaments were used to assess mechanical allodynia. Animals were housed individually in plexiglass cages with a wire mesh floor. Filaments of increasing stiffness were applied perpendicular to the midplantar surface in the sciatic nerve distribution areas of the left hindpaw and were slowly depressed (4-6 seconds) until bending occurred. The filament application order and number of trials were determined by the up-down method of Dixon (Chaplan, et al., J. Neurosci. Methods, (1994) 53:55-63). Flinching and licking of the paw and paw withdrawal on the ligated side were all considered positive responses. The 50% paw withdrawal threshold (g) was then calculated and compared to control. The doses for the acute and chronic studies were selected on the basis of prior assessment of the acute effects on the test compounds on the gross behavior in normal rats. Briefly, the rats were weighed and grouped into cages, dosed with the test compound, and observed continuously for changes in behavior. […] Pinna and corneal reflexes were tested by using a piece of natural hair from a brush that is attached to a glass rod. The righting reflexes were tested by placing the rat flat on its back, and recording the time it takes for the animal to right itself onto all four legs. The posture and gait were assessed by placing the rat on the floor.

[3] = tested on: cold allodynia in rats; experiment: Cold allodynia in vivo assay (chronic constriction injury), chronic studies; design: species or system rat; conditions: for anti-allodynia after chronic dosing: subcutaneous, 5 days of twice daily dosing
Experimental: This assay determines the effectiveness of compounds in relieving one of the symptoms of neuropathic pain produced by unilateral mononeuropathy, namely cold allodynia. Unilateral mononeuropathy was produced in rats using the Chronic Constriction Injury model performed essentially as described by Bennet and Xie, Pain, (1988) 33:87-107. Briefly, the rats were anesthetized with an intraperitoneal dose of pentobarbital sodium (65 mg/kg) with additional doses of anesthetic given as needed. The lateral aspect of each rat's hind limb was shaved and scrubbed with Novasan. Using aseptic technique, an incision was made on the lateral aspect of the hind limb at the mid-thigh level. The biceps femoris was bluntly dissected to expose the sciatic nerve. On the right hind limb of each rat, four loosely tied ligatures were made around the sciatic nerve approximately 1-2 millimeters apart. On the left side of each rat, an identical dissection was performed except that the sciatic nerve was not ligated. The muscle was closed with a continuous suture pattern, and the skin was closed with wound clips. Each rat was placed individually into a plexiglass chamber with a metal plate 6 cm from the bottom. This chamber was filled with ice water to a depth of 2.5 cm above the metal plate, with the temperature of the bath maintained at 0° C. throughout the experiment. A timer was started, and the rat's response latency was measured to the nearest tenth of a second. A "response" was defined as a rapid withdrawal of the right ligated hindpaw completely out of the water while the animal was stationary and not pivoting. An exaggerated limp while the animal was walking was not scored as a response. Maximum immersion time was 20 seconds with a 20 minute interval between trials. The screening criteria were 1) the average of two trials was less than or equal to 13 seconds, and 2) there was consistency across the two trial scores. Animals were screened for hypersensitivity to cold on post-surgery days 4 through 10, and selected for inclusion in dose-response studies based on the criteria described above. The pre-dose screening values were used as the animal's baseline cold allodynia scores. For chronic studies, the animals received subcutaneous or oral injections twice daily for 4 days and once on day 5. The animals were tested for allodynia on day 1 at 1, 3 and 5 hours following the 8 am dose, and at 5 hours following the 8 am dose on days 3 and 5. Two days later, the animals were tested for cold allodynia to assess whether there was a wash-out of the drug being tested. Following this screening for cold allodynia, the animals in two of the three chronic studies received either subcutaneous or oral injections of the drug at a dose previously shown to produce significant anti-allodynic effects acutely. […]

[4] = Adverse effects / gross behavior on dosing; format: in vivo, rat
Experimental: The doses for the acute and chronic studies were selected on the basis of prior assessment of the acute effects on the test compounds on the gross behavior in normal rats. Briefly, the rats were weighed and grouped into cages, dosed with the test compound, and observed continuously for changes in behavior. […] Pinna and corneal reflexes were tested by using a piece of natural hair from a brush that is attached to a glass rod. The righting reflexes were tested by placing the rat flat on its back, and recording the time it takes for the animal to right itself onto all four legs. The posture and gait were assessed by placing the rat on the floor.
The selection of doses was similar to that of Example 12C.

[5] = Metabolism to Formula II / plasma levels of Formula II after oral administration; format: in vivo
[6] = mechanical allodynia, subcutaneous
[7] = subcutaneous, cold allodynia acute study

CCNC(C)COc1c(C)cccc1C (racemic) [Formula I racemate, [2-(2,6-dimethylphenoxy)-1-methylethyl]-ethylamine]
potency in rat cortex greater than in rat heart or rat dorsal root ganglion ([1]; [3H]BTX binding, rat cortex vs rat heart or dorsal root ganglion): approximately 10 fold
inhibition of [3H]BTX binding ([1]; rat cortex membranes): inhibited
ED50 ([2]; Rattus norvegicus, sc, mechanical allodynia, subcutaneous): 12.6 mg/kg
EDmax [2, 6]: 66%
maximal analgesic activity (Emax) [2, 6]: 66%
potency (ED50) comparison ([2]; mechanical allodynia, subcutaneous, in words): considerably more potent (ED50) than II or III
anti-allodynia after chronic dosing [3]: significant levels of anti-allodynia
doses with adverse side effects / behavioral problems [4, 7]: higher than 60 mg/kg
adverse side effects observed ([4]; subcutaneous, cold allodynia acute study, doses higher than 60 mg/kg): convulsions and immobility
metabolism to the compound of Formula II ([5]; oral, mammal): metabolized to some extent to the compound of Formula II

CCN[C@H](C)COc1c(C)cccc1C [Formula I (R)-, (R)-[2-(2,6-dimethylphenoxy)-1-methylethyl]-ethylamine]
potency of (R)- versus (S)-enantiomer in inhibiting [3H]BTX binding ([1]; rat brain cortex membranes): no difference in the potencies
maximal analgesic activity (Emax) [2, 6]: 98%
maximal analgesic activity, comparison ([2]; mechanical allodynia, subcutaneous, vs racemates of I, II and III): significantly greater maximal analgesic activity
analgesia against mechanical allodynia ([2]; oral administration): did not produce analgesia
anti-allodynic effect after chronic oral dosing ([3]; oral, chronic, (R)-enantiomer 10 and 20 mg/kg, sub-threshold): as robust an anti-allodynic effect as an acute dose of compound I that is 10 fold higher
anti-allodynia after chronic dosing [3]: significant levels of anti-allodynia
doses with adverse side effects ([4]; oral administration, mechanical allodynia study): ≥ 300 mg/kg
safety profile ([4]; oral administration, vs (S)-enantiomer): cleaner safety profile
doses with adverse side effects / behavioral problems [4, 7]: ≥ 300 mg/kg
safety profile ([4]; subcutaneous, cold allodynia acute study, vs racemate, (S)-enantiomer, or II): cleaner safety profile
plasma level of Formula II after oral (R)-enantiomer of Formula I, less than after acute administration of Formula II itself ([5]; oral administration, plasma): 5-10 fold less
